Laboratory results taken from article PMC4193772, “Dual Effects of Alpha-Arbutin on Monophenolase and Diphenolase Activities of Mushroom Tyrosinase” (PLoS ONE, 2014).

How the values were obtained:
mushroom tyrosinase [1] = target: T1, mushroom tyrosinase; assay: dopachrome formation at […] nm, monophenolase activity; type: biochemical; settings: 0.5 mM L-tyrosine, 20 µg/mL enzyme, 50 mM phosphate pH 6.8, 30°C, air-saturated, proposed suicide substrate
T1 construct: gene PPO3

mushroom tyrosinase [2] = test system: T1, mushroom tyrosinase; assay: dopachrome formation at […] nm, diphenolase activity, Lineweaver-Burk; type: biochemical; settings: no α-arbutin, 6.67 µg/mL enzyme, 50 mM phosphate pH 6.8, 30°C, air-saturated; apparent Km

| Km (mushroom tyrosinase [2]) [mM] | Structure (SMILES) | IC50 (mushroom tyrosinase [1]) [mM] |
| --- | --- | --- |
| – | OC[C@H]1O[C@H](Oc2ccc(O)cc2)[C@H](O)[C@@H](O)[C@@H]1O [α-arbutin] | 4.5 |
| 3.92 | N[C@@H](Cc1ccc(O)c(O)c1)C(=O)O [L-Dopa] | – |
